Each structure is given as a SMILES string.

What all share (assay type): biochemical
Common to all, as to conditions: 100 micromolar inhibitor concentration; 100 is no change

One assay has as its target MKK1 (Homo sapiens, UniProt Q02750). The assay is described as follows: Kinase profiling MKK1. An excerpt:
(§1) Any value less that 25 is considered to be highly significant inhibition.

A further assay addresses p38a MAPK (Homo sapiens, UniProt Q16539). The assay is described as follows: Kinase profiling p38a MAPK.
Description: as §1

The target of the next assay is p38b MAPK (Homo sapiens, UniProt Q15759). The assay is described as follows: Kinase profiling p38b MAPK.
Description: as §1

The target of another assay is RSK2 (Homo sapiens, UniProt P51812). The assay is described as follows: Kinase profiling RSK2.
Description: as §1

The target of the next assay is T1, PDK1 (Homo sapiens, UniProt O15530).
T1 sequence (O15530 1-556): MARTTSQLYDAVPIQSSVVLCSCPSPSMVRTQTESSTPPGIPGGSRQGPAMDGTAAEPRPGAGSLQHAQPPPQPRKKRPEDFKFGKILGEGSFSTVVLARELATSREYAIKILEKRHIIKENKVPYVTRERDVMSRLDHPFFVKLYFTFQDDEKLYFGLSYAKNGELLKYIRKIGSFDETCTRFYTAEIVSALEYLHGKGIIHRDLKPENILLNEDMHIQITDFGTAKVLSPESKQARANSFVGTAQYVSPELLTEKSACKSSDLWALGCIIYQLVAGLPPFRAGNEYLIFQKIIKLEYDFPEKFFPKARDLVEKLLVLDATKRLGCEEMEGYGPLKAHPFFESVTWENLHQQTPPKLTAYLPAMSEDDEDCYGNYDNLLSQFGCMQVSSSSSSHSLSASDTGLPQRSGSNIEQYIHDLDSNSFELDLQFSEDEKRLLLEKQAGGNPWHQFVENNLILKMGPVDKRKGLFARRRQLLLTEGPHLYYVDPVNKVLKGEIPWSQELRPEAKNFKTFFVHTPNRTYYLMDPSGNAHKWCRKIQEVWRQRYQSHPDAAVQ
The experiment in a line: Kinase profiling PDK1.
Description: as §1

A further assay deals with PKBa (Homo sapiens, UniProt P31749). The assay is described as follows: Kinase profiling PKBa.
Description: as §1

A further assay addresses PKA (Homo sapiens, UniProt P17612). The assay is described as follows: Kinase profiling PKA.
Description: as §1

A further assay concerns the target PKCa (Homo sapiens, UniProt P17252). The assay is described as follows: Kinase profiling PKCa.
Description: as §1

The next assay addresses MSK1 (Homo sapiens, UniProt O75582). The assay is described as follows: Kinase profiling MSK1.
Description: as §1

For a further assay, the target named is CAMKKb (Homo sapiens, UniProt Q96RR4). The assay is described as follows: Kinase profiling CAMKKb.
Description: as §1

A further assay addresses CHK2 (Homo sapiens, UniProt O96017). The assay is described as follows: Kinase profiling CHK2.
Description: as §1

The target of a further assay is PLK1 (Homo sapiens, UniProt P53350). The experiment in a line: Kinase profiling PLK1.
Sequence of PLK1 (P53350 whole entry, species assumed): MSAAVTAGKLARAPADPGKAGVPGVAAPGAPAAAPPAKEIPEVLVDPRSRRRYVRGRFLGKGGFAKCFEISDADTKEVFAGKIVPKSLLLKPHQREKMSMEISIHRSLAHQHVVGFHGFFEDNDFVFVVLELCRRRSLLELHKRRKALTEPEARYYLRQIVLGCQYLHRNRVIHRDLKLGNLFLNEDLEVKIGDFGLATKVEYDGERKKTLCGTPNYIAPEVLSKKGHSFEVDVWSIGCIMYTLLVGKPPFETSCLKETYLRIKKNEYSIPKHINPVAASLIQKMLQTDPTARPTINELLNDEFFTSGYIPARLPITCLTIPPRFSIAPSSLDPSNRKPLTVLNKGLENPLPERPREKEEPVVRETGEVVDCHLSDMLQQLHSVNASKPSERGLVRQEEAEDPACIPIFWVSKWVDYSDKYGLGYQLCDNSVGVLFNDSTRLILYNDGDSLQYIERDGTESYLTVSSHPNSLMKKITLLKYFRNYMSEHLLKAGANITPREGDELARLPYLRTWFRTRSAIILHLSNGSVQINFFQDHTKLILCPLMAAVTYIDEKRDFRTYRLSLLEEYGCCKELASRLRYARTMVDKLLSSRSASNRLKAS
Description: as §1

The target in the next assay is MARK3 (Homo sapiens, UniProt P27448). The assay is described as follows: Kinase profiling MARK3.
Sequence of MARK3 (P27448 whole entry, species assumed): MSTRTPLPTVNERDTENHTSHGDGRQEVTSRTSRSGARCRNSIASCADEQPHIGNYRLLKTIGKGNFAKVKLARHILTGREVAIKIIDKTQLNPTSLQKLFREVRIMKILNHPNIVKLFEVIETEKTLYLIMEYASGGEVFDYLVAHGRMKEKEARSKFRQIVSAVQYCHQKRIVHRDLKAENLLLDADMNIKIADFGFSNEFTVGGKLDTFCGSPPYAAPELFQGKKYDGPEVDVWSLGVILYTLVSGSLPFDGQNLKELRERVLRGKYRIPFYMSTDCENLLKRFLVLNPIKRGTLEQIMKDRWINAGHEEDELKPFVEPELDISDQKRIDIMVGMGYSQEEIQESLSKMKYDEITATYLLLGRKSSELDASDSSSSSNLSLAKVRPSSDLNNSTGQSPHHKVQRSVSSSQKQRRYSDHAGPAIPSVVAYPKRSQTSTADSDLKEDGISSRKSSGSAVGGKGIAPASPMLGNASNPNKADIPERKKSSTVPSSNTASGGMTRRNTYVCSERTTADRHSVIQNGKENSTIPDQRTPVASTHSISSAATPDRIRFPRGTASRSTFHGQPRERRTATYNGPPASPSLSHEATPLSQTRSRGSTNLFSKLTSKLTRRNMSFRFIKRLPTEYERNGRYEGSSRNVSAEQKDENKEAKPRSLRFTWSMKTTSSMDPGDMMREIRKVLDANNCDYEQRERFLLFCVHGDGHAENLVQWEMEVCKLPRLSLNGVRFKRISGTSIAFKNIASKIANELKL
Description: as §1

The target in a further assay is DYRK1A (Homo sapiens, UniProt Q13627). The experiment in a line: DYRK 1A assay (kinase profiling). Here is the method:
Assays are stopped by addition of 5 μl of 0.5 M (3%) orthophosphoric acid and then harvested onto P81 Unifilter plates with a wash buffer of 50 mM orthophosphoric acid.
as §1

The next assay deals with T2, TBK1 (Homo sapiens, UniProt Q9UHD2).
T2 sequence (Q9UHD2 1-729): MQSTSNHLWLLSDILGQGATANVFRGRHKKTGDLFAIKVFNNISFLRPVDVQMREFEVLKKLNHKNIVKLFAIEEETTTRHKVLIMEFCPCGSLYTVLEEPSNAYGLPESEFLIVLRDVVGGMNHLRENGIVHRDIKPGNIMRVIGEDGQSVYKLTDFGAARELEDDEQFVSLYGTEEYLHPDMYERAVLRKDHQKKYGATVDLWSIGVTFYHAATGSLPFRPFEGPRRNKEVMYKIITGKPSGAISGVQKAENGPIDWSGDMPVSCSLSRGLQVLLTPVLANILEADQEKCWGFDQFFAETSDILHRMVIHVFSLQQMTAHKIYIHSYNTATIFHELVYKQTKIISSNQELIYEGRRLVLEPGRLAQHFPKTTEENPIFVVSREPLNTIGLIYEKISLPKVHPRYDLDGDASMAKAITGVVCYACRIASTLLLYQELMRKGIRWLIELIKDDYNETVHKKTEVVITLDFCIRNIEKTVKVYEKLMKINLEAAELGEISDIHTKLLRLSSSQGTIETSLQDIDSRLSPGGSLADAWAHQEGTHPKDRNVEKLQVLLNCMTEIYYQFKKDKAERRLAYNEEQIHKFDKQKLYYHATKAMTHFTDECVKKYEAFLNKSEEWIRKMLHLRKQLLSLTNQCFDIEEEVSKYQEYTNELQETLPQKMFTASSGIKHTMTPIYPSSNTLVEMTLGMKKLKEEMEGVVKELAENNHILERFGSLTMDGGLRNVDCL
The assay is described as follows: Kinase profiling TBK1.
Description: as §1

A further assay addresses PIM1 (Homo sapiens, UniProt P11309). The assay is described as follows: Kinase profiling PIM1.
Description: as §1

The next assay has as its target EF2K (Homo sapiens, UniProt O00418). The experiment in a line: Kinase profiling EF2K.
Description: as §1

The next assay addresses PAK4 (Homo sapiens, UniProt O96013). The assay is described as follows: Kinase profiling PAK4.
Description: as §1

The target in a further assay is RIPK2 (Homo sapiens, UniProt O43353). The experiment in a line: Kinase profiling RIPK2.
Description: as §1

For the next assay, the target named is Lck (Homo sapiens, UniProt P06239). The experiment in a line: Kinase profiling Lck.
Sequence of Lck (P06239 whole entry, species assumed): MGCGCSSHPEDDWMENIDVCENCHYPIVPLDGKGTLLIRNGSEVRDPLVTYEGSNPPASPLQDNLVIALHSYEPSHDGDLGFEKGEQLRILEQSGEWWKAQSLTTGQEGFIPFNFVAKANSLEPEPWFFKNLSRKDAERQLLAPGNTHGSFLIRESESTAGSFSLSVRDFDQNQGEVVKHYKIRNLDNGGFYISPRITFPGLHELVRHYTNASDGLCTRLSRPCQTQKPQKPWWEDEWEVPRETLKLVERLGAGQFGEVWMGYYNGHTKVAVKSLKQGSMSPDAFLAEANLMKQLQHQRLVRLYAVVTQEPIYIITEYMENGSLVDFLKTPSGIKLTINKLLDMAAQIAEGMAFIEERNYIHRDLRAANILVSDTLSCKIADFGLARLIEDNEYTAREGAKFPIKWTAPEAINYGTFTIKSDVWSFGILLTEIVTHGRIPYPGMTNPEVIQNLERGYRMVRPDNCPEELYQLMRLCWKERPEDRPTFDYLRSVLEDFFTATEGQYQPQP
Description: as §1

For a further assay, the target named is BTK (Homo sapiens, UniProt Q06187). The assay is described as follows: Kinase profiling BTK.
Description: as §1

Another assay deals with JAK2 (Homo sapiens, UniProt O60674). The assay is described as follows: Kinase profiling JAK2.
Sequence of JAK2 (O60674 whole entry, species assumed): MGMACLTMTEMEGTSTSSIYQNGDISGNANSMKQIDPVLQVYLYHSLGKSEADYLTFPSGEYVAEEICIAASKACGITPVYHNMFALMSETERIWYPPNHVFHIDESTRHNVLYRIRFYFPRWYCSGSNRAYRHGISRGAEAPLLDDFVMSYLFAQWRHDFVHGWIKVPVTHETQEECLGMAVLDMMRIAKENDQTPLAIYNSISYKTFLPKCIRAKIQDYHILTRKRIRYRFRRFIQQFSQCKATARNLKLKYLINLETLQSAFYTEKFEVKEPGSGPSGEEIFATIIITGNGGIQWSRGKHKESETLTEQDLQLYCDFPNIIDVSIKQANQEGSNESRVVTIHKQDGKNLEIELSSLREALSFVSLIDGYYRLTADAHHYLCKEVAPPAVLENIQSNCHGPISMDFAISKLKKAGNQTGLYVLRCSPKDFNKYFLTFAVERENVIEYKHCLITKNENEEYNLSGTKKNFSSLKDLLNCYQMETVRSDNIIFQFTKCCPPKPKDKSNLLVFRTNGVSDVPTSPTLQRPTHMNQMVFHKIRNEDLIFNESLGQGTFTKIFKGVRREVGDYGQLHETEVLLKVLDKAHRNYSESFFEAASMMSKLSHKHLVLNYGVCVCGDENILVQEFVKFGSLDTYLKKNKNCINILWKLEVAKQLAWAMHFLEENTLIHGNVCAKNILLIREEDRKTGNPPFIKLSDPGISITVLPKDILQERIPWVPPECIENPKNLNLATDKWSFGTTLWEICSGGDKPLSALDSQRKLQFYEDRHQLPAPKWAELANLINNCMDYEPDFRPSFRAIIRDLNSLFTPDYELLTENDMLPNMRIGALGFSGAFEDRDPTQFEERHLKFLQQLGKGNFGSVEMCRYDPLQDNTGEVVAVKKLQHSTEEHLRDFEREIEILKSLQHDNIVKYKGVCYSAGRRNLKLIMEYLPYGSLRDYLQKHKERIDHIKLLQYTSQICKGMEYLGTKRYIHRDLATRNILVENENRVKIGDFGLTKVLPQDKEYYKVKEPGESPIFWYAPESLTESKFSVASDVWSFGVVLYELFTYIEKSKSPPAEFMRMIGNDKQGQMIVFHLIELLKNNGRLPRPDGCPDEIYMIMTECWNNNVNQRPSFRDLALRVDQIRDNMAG
Description: as §1

The next assay addresses SYK (Homo sapiens, UniProt P43405). The assay is described as follows: Kinase profiling SYK.
Description: as §1

The target of another assay is EPH-A2 (Homo sapiens, UniProt P29317). The assay is described as follows: Kinase profiling EPH-A2.
Description: as §1

Sequence of p38a MAPK (Q16539 whole entry): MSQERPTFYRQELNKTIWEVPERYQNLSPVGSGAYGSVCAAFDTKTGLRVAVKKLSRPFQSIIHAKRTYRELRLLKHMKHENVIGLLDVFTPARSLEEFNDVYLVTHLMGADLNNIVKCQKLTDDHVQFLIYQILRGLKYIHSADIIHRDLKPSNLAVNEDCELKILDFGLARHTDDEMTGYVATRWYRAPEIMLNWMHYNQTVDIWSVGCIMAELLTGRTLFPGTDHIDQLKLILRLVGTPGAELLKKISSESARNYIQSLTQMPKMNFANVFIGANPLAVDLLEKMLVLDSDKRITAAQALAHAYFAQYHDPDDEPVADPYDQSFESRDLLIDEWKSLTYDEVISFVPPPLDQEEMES
Sequence of CHK2 (O96017 whole entry, species assumed): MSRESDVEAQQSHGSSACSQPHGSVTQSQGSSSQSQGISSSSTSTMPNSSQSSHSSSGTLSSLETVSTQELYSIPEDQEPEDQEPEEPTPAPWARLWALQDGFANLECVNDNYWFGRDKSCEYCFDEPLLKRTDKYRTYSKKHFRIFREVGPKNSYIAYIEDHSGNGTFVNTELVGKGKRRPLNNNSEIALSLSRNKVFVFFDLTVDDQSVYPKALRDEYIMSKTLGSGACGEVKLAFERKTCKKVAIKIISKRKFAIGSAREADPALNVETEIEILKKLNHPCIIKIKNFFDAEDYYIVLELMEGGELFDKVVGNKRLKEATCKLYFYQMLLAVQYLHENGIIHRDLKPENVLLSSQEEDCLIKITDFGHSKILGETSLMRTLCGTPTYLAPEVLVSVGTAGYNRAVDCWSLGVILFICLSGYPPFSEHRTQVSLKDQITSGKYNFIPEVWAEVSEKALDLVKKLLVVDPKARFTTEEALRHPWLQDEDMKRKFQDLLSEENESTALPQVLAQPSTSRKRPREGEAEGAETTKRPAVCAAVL
Sequence of PIM1 (P11309 whole entry, species assumed): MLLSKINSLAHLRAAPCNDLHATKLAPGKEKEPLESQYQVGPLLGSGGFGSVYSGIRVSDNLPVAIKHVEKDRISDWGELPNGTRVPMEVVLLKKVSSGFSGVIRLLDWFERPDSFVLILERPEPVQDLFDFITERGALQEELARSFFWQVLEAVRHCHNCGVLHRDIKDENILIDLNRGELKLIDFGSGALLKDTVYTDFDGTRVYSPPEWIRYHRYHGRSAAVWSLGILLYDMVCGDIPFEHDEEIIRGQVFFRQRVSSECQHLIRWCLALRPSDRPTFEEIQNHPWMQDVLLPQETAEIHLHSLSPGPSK
Sequence of MSK1 (O75582 whole entry, species assumed): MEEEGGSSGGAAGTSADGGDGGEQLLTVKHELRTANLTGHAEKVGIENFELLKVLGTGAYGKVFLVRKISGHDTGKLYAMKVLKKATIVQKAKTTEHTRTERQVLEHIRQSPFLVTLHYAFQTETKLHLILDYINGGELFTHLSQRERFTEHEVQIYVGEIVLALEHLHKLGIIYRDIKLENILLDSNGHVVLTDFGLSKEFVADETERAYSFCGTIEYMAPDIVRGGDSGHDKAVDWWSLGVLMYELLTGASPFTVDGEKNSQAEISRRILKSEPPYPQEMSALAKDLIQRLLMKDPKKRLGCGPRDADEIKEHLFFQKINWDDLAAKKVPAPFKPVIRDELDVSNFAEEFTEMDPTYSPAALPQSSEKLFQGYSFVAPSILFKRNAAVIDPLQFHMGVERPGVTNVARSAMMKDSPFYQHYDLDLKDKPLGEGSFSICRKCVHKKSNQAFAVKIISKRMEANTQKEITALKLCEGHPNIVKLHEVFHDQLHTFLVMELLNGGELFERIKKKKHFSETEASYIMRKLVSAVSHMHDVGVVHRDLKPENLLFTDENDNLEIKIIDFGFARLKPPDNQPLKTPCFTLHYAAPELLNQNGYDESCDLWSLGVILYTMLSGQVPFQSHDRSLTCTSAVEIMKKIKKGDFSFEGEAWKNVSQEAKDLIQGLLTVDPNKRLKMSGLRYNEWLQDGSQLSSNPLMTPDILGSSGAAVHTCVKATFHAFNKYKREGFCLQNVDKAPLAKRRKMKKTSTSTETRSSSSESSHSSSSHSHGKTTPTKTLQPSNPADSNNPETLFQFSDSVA

For the compound `O=C(Nc1nc2cc(O)ccc2s1)c1ccncc1` [Compound 03-11], the “residual kinase activity, MKK1” value on MKK1 turned out to be 88. For the same compound, at p38a MAPK, the “residual kinase activity, p38a MAPK” value worked out at 106. Further, at p38b MAPK, the “residual kinase activity, p38b MAPK” value was found to be 97. Further, the “residual kinase activity, RSK2” value on RSK2 came to 71. Besides, the “residual kinase activity, PDK1” value at PDK1 is 100. Besides, the “residual kinase activity, PKBa” value on PKBa came to 88. In addition, the “residual kinase activity, PKA” value at PKA amounted to 110. In addition, the “residual kinase activity, PKCa” value at PKCa was found to be 91. In addition, the “residual kinase activity, MSK1” value on MSK1 worked out at 97. Further, the “residual kinase activity, CAMKKb” value on CAMKKb was 88. Further, the “residual kinase activity, CHK2” value at CHK2 is 93. For the same compound, the “residual kinase activity, PLK1” value on PLK1 is listed as 76. Besides, the “residual kinase activity, MARK3” value on MARK3 amounted to 75. For the same compound, at DYRK1A, the “residual kinase activity, DYRK1A” value was 50. Besides, the “residual kinase activity, TBK1” value on TBK1 turned out to be 80. Besides, on PIM1, the “residual kinase activity, PIM1” value was found to be 74. The “residual kinase activity, EF2K” value on EF2K worked out at 79. In addition, at PAK4, the “residual kinase activity, PAK4” value stood at 73. Also, at RIPK2, the “residual kinase activity, RIPK2” value amounted to 60. The “residual kinase activity, Lck” value on Lck is 93. Also, the “residual kinase activity, BTK” value on BTK came to 107. For the same compound, the “residual kinase activity, JAK2” value on JAK2 is on record as 66. Also, the “residual kinase activity, SYK” value at SYK came to 75. The “residual kinase activity, EPH-A2” value on EPH-A2 is on record as 84.
With `O=C(Nc1nc2ccc(O)cc2s1)c1ccccn1` [Compound 03-12], the “residual kinase activity, MKK1” value at MKK1 is listed as 80. Besides, the “residual kinase activity, p38a MAPK” value on p38a MAPK was 107. For the same compound, the “residual kinase activity, p38b MAPK” value on p38b MAPK is 105. For the same compound, the “residual kinase activity, RSK2” value on RSK2 was found to be 53. The “residual kinase activity, PDK1” value at PDK1 came to 88. Further, at PKBa, the “residual kinase activity, PKBa” value was 74. For the same compound, at PKA, the “residual kinase activity, PKA” value was 97. In addition, on PKCa, the “residual kinase activity, PKCa” value stood at 101. In addition, the “residual kinase activity, MSK1” value on MSK1 stood at 90. The “residual kinase activity, CAMKKb” value at CAMKKb amounted to 41. Also, the “residual kinase activity, CHK2” value on CHK2 is given as 23. Moreover, the “residual kinase activity, PLK1” value on PLK1 came to 65. On MARK3, the “residual kinase activity, MARK3” value came out at 79. Besides, the “residual kinase activity, DYRK1A” value on DYRK1A is given as 33. Besides, at TBK1, the “residual kinase activity, TBK1” value was determined as 68. Besides, at PIM1, the “residual kinase activity, PIM1” value is listed as 51. Further, at EF2K, the “residual kinase activity, EF2K” value is given as 69. Moreover, the “residual kinase activity, PAK4” value on PAK4 is 87. In addition, the “residual kinase activity, RIPK2” value at RIPK2 was 29. In addition, the “residual kinase activity, Lck” value on Lck is 82. The “residual kinase activity, BTK” value at BTK is 71. Moreover, on JAK2, the “residual kinase activity, JAK2” value was 71. Further, at SYK, the “residual kinase activity, SYK” value is on record as 99. In addition, on EPH-A2, the “residual kinase activity, EPH-A2” value came out at 85.
For the compound `O=C(Nc1nc2cc(O)ccc2s1)c1ccccn1` [Compound 03-13], the “residual kinase activity, MKK1” value at MKK1 is 107. In addition, the “residual kinase activity, p38a MAPK” value on p38a MAPK amounted to 96. For the same compound, on p38b MAPK, the “residual kinase activity, p38b MAPK” value is reported as 91. Besides, the “residual kinase activity, RSK2” value at RSK2 stood at 72. Besides, the “residual kinase activity, PDK1” value at PDK1 is 104. Besides, the “residual kinase activity, PKBa” value on PKBa was determined as 107. Besides, the “residual kinase activity, PKA” value at PKA was 102. Also, the “residual kinase activity, PKCa” value at PKCa is 112. On MSK1, the “residual kinase activity, MSK1” value turned out to be 100. At CAMKKb, the “residual kinase activity, CAMKKb” value was 69. In addition, the “residual kinase activity, CHK2” value at CHK2 came out at 75. Also, the “residual kinase activity, PLK1” value on PLK1 came to 96. In addition, the “residual kinase activity, MARK3” value at MARK3 came out at 68. Besides, on DYRK1A, the “residual kinase activity, DYRK1A” value turned out to be 25. In addition, the “residual kinase activity, TBK1” value on TBK1 is given as 73. Further, the “residual kinase activity, PIM1” value at PIM1 was determined as 39. Besides, on EF2K, the “residual kinase activity, EF2K” value is listed as 94. Besides, at PAK4, the “residual kinase activity, PAK4” value is 115. Moreover, the “residual kinase activity, RIPK2” value at RIPK2 was determined as 27. The “residual kinase activity, Lck” value at Lck is on record as 77. Besides, the “residual kinase activity, BTK” value on BTK stood at 90. Further, the “residual kinase activity, JAK2” value on JAK2 is given as 98. The “residual kinase activity, SYK” value on SYK is on record as 106. Moreover, the “residual kinase activity, EPH-A2” value at EPH-A2 was determined as 81.

Source of the values: patent publication US10231954B2, “Neurodegenerative therapies” (LYTIX BIOPHARMA AS, priority 2014, dated 2019).
